What was measured:
U937 cells = assay: [3H]thymidine uptake in U937 cells within 1 min; type: cell-based, human; conditions: 0-250 μM vesnarinone or 0-1000 nM dipyridamole
Method: Dipyridamole was prepared as a 50 mM stock solution dissolved in ethanol.

human T cells [1] = assay: 30 min [3H]thymidine, [3H]uridine and [3H]amino acid incorporation; type: cell-based; conditions: 30 min label, 250 μM vesnarinone
Method: Next, the PHA-stimulated T cells were labelled for 30 min with 5.0 μCi/ml of an [^3 H]amino acid mixture (1.0 mCi/ml, Amersham, Arlington Heights, Ill.), washed twice with ice-cold PBS, and then lysed in PBS containing 1.0% (w/v) SDS, followed by addition of a mixture of 7.0% (w/v) trichloroacetic acid and 1.0% (w/v) pyrophosphate. The precipitates were loaded on GF/A filters, and washed extensively with a mixture of 7.0% (w/v) trichloroacetic acid and 1.0% (w/v) pyrophosphate. Radioactivity was measured by scintillation counting.

CHO cells [2] = assay: Rescue of CHO cells from cytostatic effects of 5-FUd; type: cell-based, Chinese hamster; conditions: 50 nM 5-FUd, 120 hrs; 0-250 μM vesnarinone or 1.0-10 μM dipyridamole
Excerpt: Nucleoside transport inhibitors, such as dipyridamole or NBMPR, are known to rescue cell proliferation from the cytotoxic effects of 5-fluorouridine(5-FUd) or high dose thymidine, by inhibiting transport of this cytotoxic nucleoside analog or thymidine (Aronow et al, Mol. Cell Biol., 6:2957-2962 (1986)).

Akata cells = assay: dNTP pools in Akata cells (enzymatic method); conditions: 100 μg/ml vesnarinone
Method: After a 10 min incubation on ice, the supernatant containing dNTPs was removed, frozen and evaporated with a rotary evaporator. The residue was dissolved in 100 μl of H2 O, and a 10 μl aliquot of this solution was used for the measurement of dNTP pool.
More specifically, 10 μl of the sample or a dNTP standard solution was mixed with 40 μl of the reaction buffer comprising 62.5 mMTris-HCl (pH 7.8), 0.625 mM DTT, 0.125 mg/ml calf thymus DNA (Sigma), 0.625 mg/ml BSA, 10 mM MgCl2, 6.25 μM three dNTPs, and 5.0 μCi/ml [^3 H]dATP (ICN, Costa Mesa, Calif.), for measurement of dTTP, dCTP, and dGTP, or [^3 H]dTTP (ICN), for measurement of dATP. The reaction solution was then mixed with 1.0 unit of E. coli DNA polymerase I (Boehringer Mannheim), and incubated for 40 min at 37° C. After completion of the reaction, the mixture was applied to Whatman DE-81 paper filters and radioactivity was determined using a liquid scintillation counter after three washes with 0.35M Na2 HPO4 (pH 7.5). Amounts of dNTP in the samples were calculated according to the calibration curves estimated by a set of standard dNTP samples.
In parallel, to measurement of the content of dNTPs in the untreated Akata cells after release, the dNTP pool in anti-IgG treated Akata cells was also measured in the same manner.

CHO cells [3] = assay: [3H]adenosine / [3H]adenine transport in CHO cells; conditions: 0-750 μM vesnarinone or 0-100 μM dipyridamole, 1 min pulse
E. coli DNA polymerase I = molecular target: T1, E. coli DNA polymerase I (Escherichia coli, UniProt P00582); assay: In vitro DNA polymerase assay; type: biochemical; conditions: vesnarinone up to 100 μg/ml
T1 construct: purchased Boehringer Mannheim
T1 sequence (P00582 whole entry): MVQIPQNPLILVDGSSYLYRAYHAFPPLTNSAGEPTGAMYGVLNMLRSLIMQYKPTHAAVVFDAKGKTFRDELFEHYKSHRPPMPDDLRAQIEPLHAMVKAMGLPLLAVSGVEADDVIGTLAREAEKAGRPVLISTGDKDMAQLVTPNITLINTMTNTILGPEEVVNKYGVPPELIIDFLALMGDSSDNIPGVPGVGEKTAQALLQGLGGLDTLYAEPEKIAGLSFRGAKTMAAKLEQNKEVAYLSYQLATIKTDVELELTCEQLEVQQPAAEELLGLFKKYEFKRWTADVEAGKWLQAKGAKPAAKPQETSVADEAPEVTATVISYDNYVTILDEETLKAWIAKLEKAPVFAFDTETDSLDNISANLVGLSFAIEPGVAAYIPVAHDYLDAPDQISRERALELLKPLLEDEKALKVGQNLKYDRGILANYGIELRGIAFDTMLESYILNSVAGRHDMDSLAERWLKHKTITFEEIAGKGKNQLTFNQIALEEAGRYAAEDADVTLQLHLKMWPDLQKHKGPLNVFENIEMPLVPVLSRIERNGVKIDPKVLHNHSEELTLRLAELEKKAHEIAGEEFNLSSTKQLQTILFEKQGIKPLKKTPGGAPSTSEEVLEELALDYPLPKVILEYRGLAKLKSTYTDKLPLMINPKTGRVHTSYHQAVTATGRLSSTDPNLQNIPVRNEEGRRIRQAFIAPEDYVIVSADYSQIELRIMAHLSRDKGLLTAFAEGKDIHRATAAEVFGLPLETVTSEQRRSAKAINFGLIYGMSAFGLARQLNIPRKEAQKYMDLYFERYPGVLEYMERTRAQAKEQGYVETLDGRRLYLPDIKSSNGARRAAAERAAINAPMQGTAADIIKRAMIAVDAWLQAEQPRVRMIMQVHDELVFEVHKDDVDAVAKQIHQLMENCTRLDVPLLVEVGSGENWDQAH

MRC5 cells = assay: Microscopic evaluation of cytotoxicity in MRC5 cells; type: cell-based; conditions: vesnarinone up to 31 μg/ml, alone or with DHPG
EBNA2, LMP1, bcl-2 = assay: Western blot of EBNA2, LMP1 and bcl-2 in Burkitt's lymphoma cell lines; type: cell-based, human; conditions: 20 μg/ml vesnarinone 7 days
Excerpt: The cell lines included Akata (type A, group I), Raji (type A, group III), P3HR1 (type B, group I) (ATCC No. HTB-62), and Jijoye (type B, group III) (ATCC No. CCL-87). The molecules examined were a latent nuclear protein, EBNA2, a latent membrane protein, LMP1, and an anti-apoptotic host component, bcl-2. […] These differences between the two phenotypes have been related to the sensitivity to induce apoptosis, and the ability to induce the productive phase of EBV infection (Henderson et al, Cell, 65:1107-1115 (1991); and Gregory et al, Nature, 349:612-614 (1991)).
For detection of EBNA2, LMP1, and bcl-2, the mouse monoclonal anti-EBNA2 (PE2, Accurate, Westbury, N.Y.) (Young et al, N. Engl. J. Med., 321:1080-1085 (1989)), the mouse monoclonal anti-LMP1 (S12, provided by Dr. David A. Thorley-Lawson) (Mann et al, J. Virol., 55:710-720 (1985)), and the monoclonal anti-bcl-2 (bcl-2/124, Accurate) (Pezzella et al, Am. J. Pathol., 137:225-232 (1990)), respectively, were used. The ECL chemiluminescence method was used for the detection of these proteins.

CHO cells [4] = assay: Rapid uptake of [3H]thymidine / [3H]AZT in CHO cells; conditions: 0-250 μM vesnarinone, 1 min
Method: Then, 1.0 μCi/ml of [^3 H]thymidine (6.7 Ci/mmol) or 1.0 μCi/ml of [^3 H]AZT (14 Ci/mmol) was added, and the mixture was immediately layered on silicone oil/paraffin oil (96:6) in microfuge tubes. […] The water and oil phases were discarded, and radioactivity of the cell pellets was measured using liquid scintillation counting.

[5] = tested on: nucleoside and nucleobase transport in human T cells; assay: [3H]nucleoside / [3H]nucleobase transport, 1 min pulse, T cells; type: cell-based; conditions: 250 μM vesnarinone, 100 μM deferoxamine, 15 nM aphidicolin or 1.0 μM dipyridamole
human T cells [6] = assay: Cellular DNA content by flow cytometry (propidium iodide); type: cell-based; conditions: within 48 hrs; 250 μM vesnarinone, 15 nM aphidicolin or 100 μM deferoxamine
Method: Next, cellular DNA content was evaluated over the 0-120 hrs treatment period. More specifically, 10^6 T cells treated in the same manner as described above, were fixed with 70% (v/v) ethanol at 4° C. overnight, centrifuged and washed with phosphate buffered saline (PBS). The fixed cells were incubated with 0.5 ml of 0.25 mg/ml ribonuclease (Sigma, St. Louis, Mo.) in PBS at 37° C. for 10 min. The cell suspension was mixed with 0.5 ml of a 50 μg/ml propidium iodide (Calbiochem, La Jolla, Calif.) solution in PBS, and after 60 min analyzed by flow cytometry (EPICS Profile, Coulter, Hialeah, Fla.), collecting red fluorescence (>600 nm) with 488 nm excitation.

[7] = tested on: Akata, P3HR1, Jijoye, Raji; assay: Cell growth of Burkitt's lymphoma cell lines, 7 days; type: cell-based; conditions: Homo sapiens, Burkitts lymphoma cell, 168 h; read-out: cell growth (cell numbers) relative to control cultures
[8] = tested on: PHA-activated human T lymphocytes; assay: Accumulation of phosphorylated [3H]thymidine / [3H]AZT in PHA-activated human T lymphocytes; type: cell-based; conditions: 0, 75 or 250 μM vesnarinone; 0-120 min
Excerpt: Similar results were obtained when using U937 cells, in place of the PHA-activated human T lymphocytes.

[9] = cited from earlier work
Raji cells = assay: [3H]adenosine / [3H]adenine transport in Raji cells; conditions: 0-750 μM vesnarinone or 0-100 μM dipyridamole, 1 min pulse
[10] = 31 μg/ml vesnarinone in overlay medium
human T cells [11] = assay: [3H]thymidine incorporation by PHA-stimulated human T cells; type: cell-based; conditions: 10 μg/ml PHA 48 hrs, 0-250 μM vesnarinone, 6 hrs pulse
Method: More specifically, human primary T cells were separated from peripheral blood obtained by leukopheresis of healthy donors. Mononuclear cell suspensions were prepared by Ficoll-Hypaque gradient centrifugation, and T cells were obtained by E-rosette enrichment as described by Kumagai et al, J. Cell. Physiol., 137:329 (1988).
Then, 1.0 μCi of [^3 H]thymidine (6.7 Ci/mmole, ICN), was added to 2.0×10^6 cells (100 μl), and the cells were pulse-labeled for 6 hrs.

## COc1ccc(C(=O)N2CCN(c3ccc4c(c3)CCC(=O)N4)CC2)cc1OC [vesnarinone, 3,4-dihydro-6-[4-(3,4-dimethoxybenzoyl)-1-piperazinyl]-2(1H)-quinoline]
U937 cells
  uptake of thymidine: inhibited the uptake of thymidine in a dose-dependent manner
Human T cells [1]
  [3H]amino acid incorporation: did not inhibit [^3 H]amino acid incorporation
Human T cells [1]; 15 nM aphidicolin or 100 μM deferoxamine
  [3H]uridine incorporation, brief exposure: rapidly inhibited [^3 H]uridine incorporation
CHO cells [2]
  reversal of cytostatic effects of 5-FUd (cell number): demonstrated a similar ability to rescue the cells in a dose-dependent manner
Akata cells; 13 hrs after DMSO release, without anti-IgG
  cellular content of dATP and dGTP: displayed progressive reductions 13 hrs after release in the presence of vesnarinone
Akata cells; 20 hrs after anti-IgG
  level of dTTP in anti-IgG treated cells: partially suppressed in the presence of vesnarinone
Akata cells; after DMSO release
  cellular content of dCTP: remained low in the presence or absence of vesnarinone
Akata cells; after DMSO release, without anti-IgG
  cellular content of dTTP: the levels of dTTP remained quite low
CHO cells [3]
  [3H]adenosine and [3H]adenine transport: inhibitory effects on nucleoside and nucleobase transport in vitro were observed within the therapeutic range
E. coli DNA polymerase I
  effect on in vitro DNA polymerase assay: has no effect on the measurement of dNTP contents in this in vitro DNA polymerase assay
MRC5 cells
  cytotoxicity by microscopic evaluation: No cytotoxicity was observed
EBNA2, LMP1, bcl-2; group I lines (Akata, P3HR1)
  expression of EBNA2, LMP1, bcl-2: did not induce these molecules in the group I lines
EBNA2, LMP1, bcl-2; group III lines (Raji, Jijoye)
  expression of EBNA2, LMP1, bcl-2: nor did the vesnarinone alter levels of expression of these molecules in the group III lines
CHO cells [4]
  uptake of [3H]AZT: the uptake of [^3 H]AZT was not affected by vesnarinone
  uptake of [3H]thymidine: inhibits the uptake of [^3 H]thymidine in a dose-dependent manner
[5]
  transport of [3H]thymidine, [3H]adenosine, [3H]adenine, [3H]uracil: inhibited transportation of [^3 H]thymidine, [^3 H]adenosine, [^3 H]adenine, and also to a lesser extent, [^3 H]uracil
Human T cells [6]
  entry into S and G2/M phases (cellular DNA content): a certain proportion of the cells entered both S and G2/M phases of the cell cycle
[7]
  activity at 20 µg/mL: 80 to 90%
[8]
  accumulation of phosphorylated AZT: augmented the accumulation of phosphorylated AZT
  accumulation of phosphorylated [3H]thymidine: delayed the accumulation of phosphorylated [^3 H]thymidine
[9]
  therapeutic range in vivo: 2 to 80 µM
Raji cells
  [3H]adenosine and [3H]adenine transport: inhibitory effects on nucleoside and nucleobase transport in vitro were observed within the therapeutic range
[10]
  precipitate observed in culture: A small amount of precipitate was observed at 31 μg/ml of vesnarinone
Human T cells [11]
  [3H]thymidine incorporation into DNA: inhibits [^3 H]thymidine incorporation into DNA in a dose-dependent manner

From patent US5670520A, “Method for inhibiting virus replication in mammalian cells using carbostyil derivatives” (Otsuka Pharmaceutical Co., Ltd., priority 1996, dated 1997)
